# Measurements published in patent publication US20070105825A1, “Concurrent drugs” (priority 2004, published 2007).
# Columns and labels:
# [1] = test system: whole blood; experiment: Improvement effect on activated state of blood coagulation (activated whole blood clotting time, Hemochron); format: cell-based, rabbit (Japanese White, male); conditions: rabbit whole blood; for significant prolonged effect on the activated whole blood clotting time to the control: independent use, 1 μM; for activated clotting time (mean ± S.E.): single application, antiplatelet drug 1 μM, control 218 ± 5.1
# Method: Citrate blood collected from a rabbit (Japanese White, male) was used for the test as the whole blood after maintaining room temperature for 30-60 minutes. 376 μL of the whole blood, 4 μL of a dimethylsulfoxide and 20 μL of a 250 mM calcium chloride solution were poured into a test tube for measurement of activated whole blood clotting time (Hemochron test tube P214, International Technidyne Corporation). After slight stirring of the mixture, an activated whole blood clotting time was measured by a blood clotting meter (Hemochron 801, International Technidyne Corporation) as the control.
# [2] = test system: thrombus formation in abdominal aorta of rats; experiment: Inhibitory effect on thrombus formation (FeCl2-induced abdominal aorta thrombus, total protein content); format: in vivo, rat (Sprague-Dawley, male); conditions: rat; for significant inhibitory effects on the thrombus formation compared with group A as control: alone: cilostazol 100 mg/kg oral or compound Id 3 mg/kg subcutaneous; for Total protein amount in thrombus: single application, control 1.52 ± 0.39
# Method: Rats (Sprague-Dawley rats, male) were divided into four groups of A, B, C and D. 0.5% methylcellulose solution was orally administrated into the rats of groups A and B, and cilostazol (100 mg/kg) was orally administrated into the rats of groups C and D. […] Simultaneously, the all rats of groups A-D were anesthetized by intraperitoneal injection of 5 mL/kg of 20% urethane solution. […] After removing of the filter paper, each rat was left at rest for additional 25 minutes. Then, the abdominal aorta was ligated at both upper and lower ends of the thrombus induction site. All the thrombus adhering to the inside of the excised abdominal aorta were harvested and dissolved in 1 mL of 0.5 N sodium hydroxide solution as the test solution. The total protein content in the test solution was measured using Coomasie Plus Protein Assay Kit (PIERCE Corp.) as the index of the thrombus formation.
SMILES,significant prolonged effect on the activated whole blood clotting time to the control [1],activated clotting time (mean ± S.E.) [1] [s],significant inhibitory effects on the thrombus formation compared with group A as control [2],"Total protein amount in thrombus ([2]; cilostazol 100 mg/kg oral, n=3) [mg]","Total protein amount in thrombus ([2]; compound Id 3 mg/kg subcutaneous, n=4) [mg]"
"O=C1CCc2cc(OCCCCc3nnnn3C3CCCCC3)ccc2N1 [Cilostazol, cilostazol]",showed a significant prolonged effect,205 ± 5.8,not observed,1.39 ± 0.45,
CS(=O)(=O)c1ccccc1-c1ccc(CCNS(=O)(=O)c2cc(C(=N)N)ccc2O)c(OCC(=O)O)c1 [Compound Id],,,not observed,,0.94 ± 0.30
"OCCN(CCO)c1nc(N2CCCCC2)c2nc(N(CCO)CCO)nc(N3CCCCC3)c2n1 [Dipyridamole, dipyridamole]",showed a significant prolonged effect,210 ± 10.9,,,
"CC(=O)Oc1ccccc1C(=O)O [Aspirin, aspirin]",showed a significant prolonged effect,215 ± 16.3,,,
